Laboratory results taken from patent US20040023998A1, “Novel crystals of 1,3,4-oxadiazole derivatives, process for producing the crystals and medicines containing the same as the active ingredient” (priority 2000, published 2004).
Converted amounts (≈) assume the structure as drawn.

Assays:
[1] = Solubility of compound of the present invention in various solvents (saturated solution, HPLC); type: physicochemical
Experimental: The compound of the present invention was added to various solvents so that a saturated state was achieved. Each mixture was stirred for 30 seconds by means of a laboratory mixer and then allowed to stand for 4 minutes and 30 seconds. The stirring and standing operations were repeated seven times. The mixture was centrifuged at 3000 rpm for 15 minutes and isoamyl 4-hydroxybenzoate was added as an internal standard to the resulting supernatant. Furthermore, acetonitrile was added to the supernatant to form a sample solution. A portion (8 μL) of each solution was analyzed using high performance liquid chromatography (HPLC) under the following conditions to determine its concentration by the internal standard method, and thereby solubility was calculated. Additionally, pH at the dissolution was measured.
HPLC measuring conditions
Eluent: 20 mmol/L aqueous potassium dihydrogen phosphate solution (pH 8.0, sodium hydroxide)/acetonitrile=65/35
As the buffer (buffer solution) in Table 5, Briton-Robinson Buffer having an ionic strength of 0.2 was used.

[2] = Stability test (storage of solid, residual ratio by HPLC); type: physicochemical; details: all storage conditions of Table 6
Experimental: The compound of the present invention (about 50 mg) was weighed in a test tube and stored under the following conditions. The stored sample was analyzed using high performance liquid chromatography (HPLC) to calculate its residual ratio by the internal standard method.
Condition 1: 60° C., sealed, 1 month;
Condition 2: 40° C., open, 75%RH (relative humidity), 3 months;
Condition 3: 40° C., sealed, 6 months;
Condition 4: 25° C., open, 60%RH (relative humidity), 12 months;
Condition 5: 5° C., sealed, 12 months;
The HPLC measurement was carried out under the same conditions as in Example 2 described above.

[3] = Text: Moreover, for removing tetrahydrofuran in this Type-1 crystals and obtaining Type-1 crystals, it is necessary to reflux them in ethanol.

Compound | solubility at 35 min ([1]; aqueous buffer, thermodynamic from solid, Buffer pH 3.0 (Briton-Robinson, ionic strength 0.2), pH at dissolution 3.0) [µg/mL] | solubility at 35 min ([1]; aqueous buffer, thermodynamic from solid, Buffer pH 5.0 (Briton-Robinson, ionic strength 0.2), pH at dissolution 5.0) [µg/mL] | solubility at 35 min ([1]; aqueous buffer, thermodynamic from solid, Buffer pH 7.0 (Briton-Robinson, ionic strength 0.2), pH at dissolution 7.0) [µg/mL] | solubility at 35 min ([1]; aqueous buffer, thermodynamic from solid, Buffer pH 9.0 (Briton-Robinson, ionic strength 0.2), pH at dissolution 8.6) [µg/mL] | solubility at 35 min ([1]; organic solvent or mixture, thermodynamic from solid, solvent: Acetonitrile) [µg/mL] | solubility at 35 min ([1]; organic solvent or mixture, thermodynamic from solid, solvent: Ethanol) [µg/mL] | solubility at 35 min ([1]; organic solvent or mixture, thermodynamic from solid, solvent: Methanol) [µg/mL] | solubility at 35 min ([1]; organic solvent or mixture, thermodynamic from solid, solvent: Octanol) [µg/mL] | solubility at 35 min ([1]; pH 7.3, thermodynamic from solid, solvent: Purified water, pH at dissolution 7.3) [µg/mL] | Stability (conclusion from Table 6) [2] | Toxicity (Toxicity) | Stability of the form in water [3]
CC(C)C(NC(=O)Cn1c(-c2ccccc2)ncc(N)c1=O)C(=O)c1nnc(C(C)(C)C)o1 (racemic) [compound of the present invention, 2-[5-amino-6-oxo-2-phenyl-1,6-dihydro-1-pyrimidyl]-N-[1-(2-[5-t-butyl-1,3,4-oxadiazolyl]carbonyl)-2-(R,S)-methylpropyl]acetamide] | 122 (≈ 270 µM) | 104 (≈ 230 µM) | 94 (≈ 208 µM) | 45 (≈ 99.4 µM) | 19100 (≈ 42200 µM) | 7290 (≈ 16100 µM) | 33600 (≈ 74300 µM) | 710 (≈ 1570 µM) | 73 (≈ 161 µM) | sufficiently stable | sufficiently low toxicity | 
CC(C)C(NC(=O)Cn1c(-c2ccccc2)ncc(N)c1=O)C(=O)c1nnc(C(C)(C)C)o1 (racemic) [Type-1 crystals, 2-[5-Amino-6-oxo-2-phenyl-1,6-dihydro-1-pyrimidyl]-N-[1-(2-[5-t-butyl-1,3,4-oxadiazolyl]carbonyl)-2-(R,S)-methylpropyl]acetamide, reference compound] |  |  |  |  |  |  |  |  |  |  |  | promptly results in precipitation of Type-2 crystals
